Reference: patent US20260265331A1, “GLYCOSYLATED NEUROPEPTIDE DERIVATIVE INCLUDING NEUROPEPTIDE SEQUENCE AND SUGAR CHAIN, PHARMACEUTICAL COMPOSITION, INTRANASAL/NASAL DROP FORMULATION, AND USE OF GLYCOSYLATED NEUROPEPTIDE DERIVATIVE” (TOKYO UNIVERSITY OF SCIENCE FOUNDATION, priority 2022, published 2026)
Where no end group is shown, it is not given here. The star is where a group is joined. Cam = NC(=O)C*

Experiments:
[1] = Distribution in brain by immunostaining of frozen brain sections (Examples 6 and 7); format: in vivo, mice; details: Example 7, 3.0 nmol/mouse intranasal
Method: The brain was isolated 5 minutes after the administration and 20 minutes after the administration, respectively.
(§1) The brain isolated 5 minutes after the intranasal administration was subjected to infiltration fixation with 4% PFA at 4° C. overnight without performing perfusion fixation. The isolation of the brain 20 minutes after the intranasal administration was performed by the following process.
The mouse was fixed in a supine position under anesthesia with isoflurane, and the chest was incised. The tissue was fixed by perfusing with PBS, and subsequently with 4% PFA, from the left chamber of the heart throughout the whole body. The isolated brain was preserved in a 4% PFA solution. On the day following the isolation, the brain samples were substituted with 20% sucrose overnight (4° C.), and further with 30% sucrose overnight (4° C.). Thereafter, a frozen section with a thickness of 30 μm was prepared using a cryostat (CM3050S; Leica Microsystems).
The frozen brain section was mounted on a slide glass, and a circle was drawn around the section with a liquid blocker. A blocking buffer was added inside the circle and the section was subjected to blocking for 30 minutes at room temperature. Thereafter, the section was added with a first antibody solution including a GLP-2 polyclonal antibody, diluted by 200 times with a blocking solution, and subjected to incubation for 1 hour at room temperature. After rinsing three times with 1×PBS, the section was added with a second antibody solution including Alexa Fluor (trademark) 568 Goat Anti-Mouse IgG H&L, diluted by 500 times with a BSA/PBS solution, and subjected to incubation for 1 hour at room temperature. After rinsing three times with 1×PBS, the section was mounted with ProLong (trademark) Diamond Antifade Mountant. After confirming the solidification of the mountant, the section was subjected to fluorescent observation and imaging with a confocal laser microscope (TCS SP8; Leica) and a software (Leica Application Suite X Software; Leica).
Mice were intranasally administered with 16% DMSO or the GLP-2 derivatives (3.0 nmol/mouse), and the brain was isolated 5 minutes, 10 minutes, 20 minutes and 60 minutes after the administration.
as §1, with “isolated 5 minutes or 10 minutes after” for “isolated 5 minutes after”, “20 minutes or 60 minutes after the” for “20 minutes after the”
Sections of the olfactory bulb (OB) including olfactory nerves, pons/principal sensory nucleus of trigeminal nerve (Pr5), hippocampus (HIP) and dorsomedial nucleus of the hypothalamus (DMH) were prepared by referring to the Nissil staining images and the brain map (Paxinos and Franklin, 2003).
The frozen brain section was mounted on a slide glass, and a circle was drawn around the section with a liquid blocker. A blocking buffer was added inside the circle and the section was subjected to blocking for 30 minutes at room temperature. Thereafter, the section was added with a first antibody solution including a GLP-2 polyclonal antibody, diluted by 200 times with a blocking solution, and subjected to incubation for 1 hour at room temperature. […]

[2] = Quantification by GLP-2 ELISA of amount of migration to brain; format: in vivo, mice; details: 6.0 nmol/mouse intranasal, brain isolated 20 minutes after administration; FIG. 5
Method: Mice were intranasally administered with 16% DMSO or the GLP-2 derivatives (6.0 nmol/mouse). The brain was isolated 20 minutes after the administration, and homogenized with BioMasher II (Nippi, Tokyo, Japan). A sample was prepared by performing centrifugal separation by 1000×g (4° C.) for 15 minutes and collecting a supernatant. The amount of the GLP-2 derivative in the sample was quantified using a GLP-2 ELISA kit. Specifically, a cleaning process including filling each well of a measurement plate with a cleaning fluid (350 μL) and suctioning the cleaning fluid with a pipette was performed three times. […] Finally, an enzyme reaction stop solution (100 μL) was added and an absorbance at 490 nm was measured with ARVO (PerkinElmer Japan Co., Ltd., Kanagawa, Japan) to calculate the concentration of a GLP-2 derivative.
Mice were intranasally administered with the PAS-CPP-GLP-2 derivative prepared in Example 1 (C-terminus 11-sugar, no linker, C11), the PAS-CPP-GLP-2 derivative (N-terminus 11-sugar, no linker, N11), and the PAS-CPP-GLP-2 derivative glycosylated via a C6 alkylene group (N-terminus 11-sugar, with C6 linker, C6), respectively (6.0 nmol/mouse). […] The amount of the GLP-2 derivative in the sample was quantified using a GLP-2 ELISA kit. […]

Substance: FFLIPKGRRRRRRRRGGHADGSFSDEMNTILDNLAARDFINWLIQTKITDC(Cam)-OH [PAS-CPP-GLP-2 derivative (no sugar)]
- fluorescence at OB and Pr5 ([1]; 5 minutes, FIG. 7A): a significant degree of fluorescence was observed
- fluorescence at HIP and DMH ([1]; 20 minutes, FIG. 7B): intense fluorescence was observed
- fluorescence at OB ([1]; 20 minutes, FIG. 7B): a significant degree of fluorescence was observed at OB
- fluorescence intensity at OB or Pr5 relative to 5 minutes ([1]; 20 minutes, FIG. 7B): weaker than the fluorescence observed 5 minutes after the administration
- fluorescence at HIP and DMH ([1]; 60 minutes, FIG. 7C): fluorescence was not observed
- amount of GLP-2 derivative in brain (ELISA) [2]: below the detection limit
